Counter-ions that a name gives are not always drawn.
What was measured:
[1] = tested on: NCI-H292 lung cancer cells; test: FDA drug screening, complete media vs cholesterol-free media without statin (TABLE 1); assay type: cell-based, human
[2] = tested on: NCI-H292 lung cancer cells; test: FDA drug screening, complete media vs cholesterol-free media with simvastatin (TABLE 2); assay type: cell-based, human; settings: for Cholesterol-free media + simvastatin (0.04 μM) / Complete Media: NCI-H292 cells
[3] = Complete minus Cholesterol-free, >0 enhanced anti-cancer activity, about 0 neutral, <0 antagonist
[4] = NCI-H292 cells, cholesterol-free media without statin
[5] = FDA drug library screen, cholesterol-free media with simvastatin 0.04 μM
[6] = FDA drug library screen, complete media
[7] = complete media vs cholesterol-free media + simvastatin (0.04 μM), >0 enhanced anti-cancer activity, about 0 neutral, <0 antagonist
[8] = NCI-H292 cells, cholesterol-free media without statin, FDA drug library screen
[9] = NCI-H292 cells, complete media, FDA drug library screen
[10] = complete vs cholesterol-free media, >0 enhanced anti-cancer activity, about 0 neutral, <0 antagonist
[11] = cholesterol-free media with simvastatin 0.04 μM, cell growth value in FDA drug screen
[12] = complete media, cell growth value in FDA drug screen
[13] = complete media minus cholesterol-free media + simvastatin, >0 enhanced anti-cancer activity, about 0 neutral, <0 antagonist
[14] = complete vs cholesterol-free media, greater than 0 enhanced anti-cancer activity, about 0 neutral, below 0 antagonists
[15] = drug in cholesterol-free media with simvastatin 0.04 μM
[16] = Complete minus Cholesterol-free, greater than 0 enhanced anti-cancer activity, about 0 neutral, below 0 antagonist
[17] = NCI-H292 cells, FDA drug library screen, cholesterol-free media without statin
[18] = NCI-H292 cells, FDA drug library screen, complete media
[19] = cholesterol-free media with simvastatin 0.04 μM, FDA drug library screen (TABLE 2)
[20] = complete media, FDA drug library screen (TABLE 2)
[21] = Complete minus Cholesterol-free, […]
[22] = FDA library drug in cholesterol-free media with simvastatin 0.04 μM
[23] = FDA library drug in complete media
[24] = complete media vs cholesterol-free media + simvastatin (0.04 μM), […]
[25] = NCI-H292 cells in cholesterol-free media without statin
[26] = NCI-H292 cells in complete media

SMILES | Cholesterol-free [1, 4] | Complete ([1]; NCI-H292 cells, complete media) | Cholesterol-free media + simvastatin (0.04 μM) [2, 5] | Complete Media [2, 6] | Difference [2, 7] | Cholesterol-free [1, 8] | Complete [1, 9] | Difference [2, 13] | further results
O=c1[nH]cnc2c1ncn2[C@H]1CC[C@@H](CO)O1 [Didanosine] | 0.9969 | 0.7675 | 0.9758 | 0.8636 | −0.11 | – | – | – | Difference [1, 3]: −0.23
C/C=C(/C(=C/C)c1ccc(O)cc1)c1ccc(O)cc1 [Dienestrol] | – | – | – | – | – | 0.6505 | 1.078 | 0.13 | Difference [1, 10]: 0.43; Cholesterol-free media + simvastatin (0.04 μM) [2, 11]: 0.8618; Complete Media [2, 12]: 0.9909
C[C@]12CCC3=C4CCC(=O)C=C4CC[C@H]3[C@@H]1CC[C@@]2(O)CC#N [Dienogest] | 1.387 | 1.069 | – | – | −0.21 | – | – | – | Difference [1, 14]: −0.32; Cholesterol-free media + simvastatin (0.04 μM) [2, 15]: 0.9182; Complete Media ([2]; drug in complete media): 0.7086
CC/C(=C(/CC)c1ccc(O)cc1)c1ccc(O)cc1 [Diethylstilbestrol] | – | – | – | – | – | 0.5644 | 0.9798 | 0.10 | Difference [1, 10]: 0.42; Cholesterol-free media + simvastatin (0.04 μM) [2, 11]: 0.993; Complete Media [2, 12]: 1.095
CCN(CC)C(=O)c1cccc(C)c1 [Diethyltoluamide] | – | – | – | – | −0.20 | – | – | – | Difference [1, 16]: −0.08; Cholesterol-free [1, 17]: 1.096; Complete [1, 18]: 1.015; Cholesterol-free media + simvastatin (0.04 μM) [2, 15]: 1.302; Complete Media ([2]; drug in complete media): 1.098
CC(=O)OCC(=O)[C@@]1(OC(C)=O)[C@@H](C)C[C@H]2[C@@H]3C[C@H](F)C4=CC(=O)C=C[C@]4(C)[C@@]3(F)[C@@H](O)C[C@@]21C [Diflorasone] | – | – | 0.8775 | – | – | – | – | 0.30 | Difference [1, 16]: −0.10; Cholesterol-free [1, 17]: 0.7536; Complete [1, 18]: 0.6518
O=C(O)c1cc(-c2ccc(F)cc2F)ccc1O [Diflunisal] | – | – | – | – | – | 1.041 | 1.674 | – | Difference [1, 10]: 0.63; Cholesterol-free media + simvastatin (0.04 μM) [2, 19]: 0.785; Complete Media [2, 20]: 0.7827; Difference ([2]; complete media minus cholesterol-free media + simvastatin (0.04 μM), >0 enhanced anti-cancer activity, about 0 neutral, <0 antagonist): 0.00
CCCC(=O)O[C@]1(C(=O)COC(C)=O)CC[C@H]2[C@@H]3C[C@H](F)C4=CC(=O)C=C[C@]4(C)[C@@]3(F)[C@@H](O)C[C@@]21C [Difluprednate] | 0.9273 | 0.7168 | – | – | – | – | – | 0.07 | Difference [1, 3]: −0.21; Cholesterol-free media + simvastatin (0.04 μM) [2, 11]: 1.197; Complete Media [2, 12]: 1.264
C[C@H]1O[C@@H](O[C@H]2[C@@H](O)C[C@H](O[C@H]3[C@@H](O)C[C@H](O[C@H]4CC[C@@]5(C)[C@H](CC[C@@H]6[C@@H]5CC[C@]5(C)[C@@H](C7=CC(=O)OC7)CC[C@]65O)C4)O[C@@H]3C)O[C@@H]2C)C[C@H](O)[C@@H]1O [Digitoxin] | – | – | – | – | – | −0.01931 | 0.0198 | – | Difference [1, 21]: 0.04; Cholesterol-free media + simvastatin (0.04 μM) [2, 19]: 0.01053; Complete Media [2, 20]: −0.02212; Difference ([2]; complete media minus cholesterol-free media + simvastatin (0.04 μM), […]): −0.03
C[C@H]1[C@@H](O)O[C@@H]2O[C@@]3(C)CC[C@H]4[C@H](C)CC[C@@H]1[C@@]24OO3 [Dihydroartemisinin] | – | – | – | – | −0.19 | 0.5972 | 0.6489 | – | Difference [1, 3]: 0.05; Cholesterol-free media + simvastatin (0.04 μM) [2, 15]: 0.9193; Complete Media ([2]; drug in complete media): 0.7262
Oc1c(I)cc(I)c2cccnc12 [Diiodohydroxyquinoline] | 1.098 | 0.8284 | 0.94 | 1.35 | – | – | – | 0.41 | Difference [1, 3]: −0.27
COc1ccc([C@@H]2Sc3ccccc3N(CCN(C)C)C(=O)[C@@H]2OC(C)=O)cc1 [Diltiazem (hydrochloride)] | 1.001 | 0.6844 | 1.317 | 1.159 | −0.16 | – | – | – | Difference [1, 14]: −0.32
OCC(S)CS (stereo not shown) [Dimercaprol] | – | – | 0.8801 | 1.094 | – | – | – | 0.21 | Difference [1, 16]: −0.18; Cholesterol-free [1, 17]: 0.9919; Complete [1, 18]: 0.8115
O=S(=O)([O-])CCSSCCS(=O)(=O)[O-].[Na+].[Na+] [Dimesna] | – | – | 0.7165 | 1.057 | – | – | – | – | Difference [1, 21]: −0.18; Cholesterol-free [1, 17]: 1.073; Complete [1, 18]: 0.897; Difference ([2]; complete media minus cholesterol-free media + simvastatin, […]): 0.34
COC(=O)/C=C/C(=O)OC [Dimethyl fumarate] | – | – | 0.991 | 0.9095 | −0.08 | – | – | – | Difference [1, 16]: −0.13; Cholesterol-free [1, 17]: 0.8617; Complete [1, 18]: 0.7326
Cc1ncc([N+](=O)[O-])n1C [Dimetridazole] | 1.219 | 0.8738 | – | – | −0.71 | – | – | – | Difference [1, 14]: −0.35; Cholesterol-free media + simvastatin (0.04 μM) [2, 22]: 1.602; Complete Media [2, 23]: 0.8915
CCCCC[C@H](O)/C=C/[C@@H]1[C@@H](C/C=C\CCCC(=O)O)[C@@H](O)C[C@H]1O.NC(CO)(CO)CO [Dinoprost (tromethamine salt)] | 1.291 | 0.9605 | – | – | −0.59 | – | – | – | Difference [1, 14]: −0.33; Cholesterol-free media + simvastatin (0.04 μM) [2, 22]: 1.671; Complete Media [2, 23]: 1.083
COc1ccc(-c2cc(=O)c3c(O)cc(O[C@@H]4O[C@H](CO[C@@H]5O[C@@H](C)[C@H](O)[C@@H](O)[C@H]5O)[C@@H](O)[C@H](O)[C@H]4O)cc3o2)cc1O [Diosmin] | – | – | 1.252 | – | −0.10 | 0.7178 | 1.465 | – | Difference [1, 10]: 0.75
CN(C)CCOC(c1ccccc1)c1ccccc1 [Diphenhydramine (hydrochloride)] | 1.083 | 0.8936 | 0.5789 | 0.7429 | – | – | – | 0.16 | Difference [1, 3]: −0.19
OC(CCCN1CCCCC1)(c1ccccc1)c1ccccc1 [Diphenidol (hydrochloride)] | 1.3 | 0.8776 | 0.9412 | 1.206 | – | – | – | 0.26 | Difference [1, 14]: −0.42
COS(=O)(=O)[O-].C[N+]1(C)CCC(=C(c2ccccc2)c2ccccc2)CC1 [Diphenmanil (methylsulfate)] | – | – | – | – | – | 0.8176 | 0.9244 | – | Difference ([1]; complete vs cholesterol-free media, […]): 0.11; Cholesterol-free media + simvastatin (0.04 μM) [2, 22]: 2.109; Complete Media [2, 23]: 1.508; Difference [2, 24]: −0.60
CN1CCC(OC(c2ccccc2)c2ccccc2)CC1 [Diphenylpyraline (hydrochloride)] | 0.9623 | 0.7446 | 0.641 | 1.367 | – | – | – | 0.73 | Difference [1, 3]: −0.22
Cn1c(=O)c2c(ncn2CC(O)CO)n(C)c1=O (stereo not shown) [Diphylline] | – | – | – | – | – | – | – | – | Difference [1, 21]: −0.69; Cholesterol-free [1, 25]: 1.559; Complete [1, 26]: 0.8732; Cholesterol-free media + simvastatin (0.04 μM) [2, 15]: 1.247; Complete Media ([2]; drug in complete media): 1.05; Difference [2, 24]: −0.20
CC1(C)[C@@H](O[C@H]2O[C@H](C(=O)[O-])[C@@H](O)[C@H](O)[C@H]2O[C@@H]2O[C@H](C(=O)[O-])[C@@H](O)[C@H](O)[C@H]2O)CC[C@]2(C)[C@H]3C(=O)C=C4[C@@H]5C[C@@](C)(C(=O)O)CC[C@]5(C)CC[C@@]4(C)[C@]3(C)CC[C@@H]12.[K+].[K+] [Dipotassium glycyrrhizinate] | – | – | – | – | – | 1.01 | 1.007 | – | Difference [1, 21]: 0.00; Cholesterol-free media + simvastatin (0.04 μM) [2, 15]: 1.125; Complete Media ([2]; drug in complete media): 0.9331; Difference [2, 24]: −0.19
OCCN(CCO)c1nc(N2CCCCC2)c2nc(N(CCO)CCO)nc(N3CCCCC3)c2n1 [Dipyridamole] | – | – | – | – | – | – | – | 0.13 | Difference ([1]; Complete minus Cholesterol-free, greater than 0 enhanced anti-cancer activity, about 0 neutral, below 0 antagonists): −0.51; Cholesterol-free [1, 25]: 1.48; Complete [1, 26]: 0.9729; Cholesterol-free media + simvastatin (0.04 μM) [2, 11]: 0.9652; Complete Media [2, 12]: 1.095
O=c1ccn([C@@H]2O[C@H](COP(=O)([O-])OP(=O)([O-])OP(=O)([O-])OP(=O)([O-])OC[C@H]3O[C@@H](n4ccc(=O)[nH]c4=O)[C@H](O)[C@@H]3O)[C@@H](O)[C@H]2O)c(=O)[nH]1.[Na+].[Na+].[Na+].[Na+] [Diquafosol (tetrasodium)] | – | – | 1.438 | 1.601 | – | – | – | 0.16 | Difference [1, 16]: −0.16; Cholesterol-free [1, 17]: 0.9096; Complete [1, 18]: 0.7536
